Results published in patent US12698474B2, “B-cell cultivation method” (priority 2017, dated 2026).

Test system: B-cells obtained from a rabbit immunized with human serum albumin (HSA)
Test: Co-cultivation of single deposited B-cells with EL-4 B5 feeder cells, detection of antigen-specific (anti-HSA) IgG by ELISA;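 for HSA+ wells [% IgG+]: relative ranking scale running from o (lowest) to +++++ (highest)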;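 for HSA+ wells [% total]: relative ranking scale running from o (lowest) to +++++ (highest)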
Type: cell-based
Protocol: In more detail, NZW rabbits, 12-16 weeks old, were immunized with 400 μg recombinant human serum albumin protein (HSA; CAS RN 70024-90-7; Sigma), emulsified with complete Freund's adjuvant, at day 0 by intradermal application, followed by 200 μg HSA emulsified with complete or incomplete Freund's adjuvant at weeks 1, 2, 6, 10 and 23, by alternating intramuscular and subcutaneous injections.
Generally, antibodies produced by single deposited and co-cultivated B-cells or from B-cells obtained from an immunized experimental animal can be characterized with respect to specific antigen binding. The ELISA was performed at room temperature and the ELISA-solution was incubated between the individual steps on a shaker at 20×g. In the first step the antigen was bound to the wells of a 96-well multi well plate. If the antigen was a protein it had been diluted in coating buffer and applied directly to the plate. Peptide antigens were bound via the specific binding pair biotin/streptavidin. The wells of the multi well plate can be already coated with soluble CroteinC (CrC) by the manufacturer. If not, the wells were incubated after the immobilization of the antigen with 200 μl blocking buffer. After the incubation with 100 μl antigen solution per well (pre-coated multi well plate) or 200 μl blocking buffer, respectively, non-bound antigen or blocking buffer was removed by washing with wash buffer. The diluted B-cell supernatants were added in a volume of 100 μl per well and incubated. After the incubation the wells were washed. Afterwards the detection antibody was added in a volume of 100 μl per well. The antibody can be either conjugated to horseradish peroxidase or labeled with biotin. The detection antibody was determined with a streptavidin-horseradish peroxidase conjugate. After the incubation the multi well plate was washed and afterwards 50 μl of a substrate solution containing 3,3′,5,5′ tetramethyl benzidine (TMB) were added per well and incubated for a period as given in Table X. The enzymatic reaction was stopped by the addition of 50 μl sulfuric acid and the optical density was determined at 450 nm and 680 nm with a photometer (Rainbow Thermo ELISA Reader) and the Xread plus-software.
Specifically, the assay was performed at room temperature (RT) on 384-well Maxisorp microtiter plates (Thermo Scientific) with PBS (phosphate buffered saline) buffer supplemented with 0.5% Gelatine and 0.025% Tween V-20. The plates were coated with 0.5 μg/ml of human serum albumin (HSA, Sigma-Aldrich) for at least 2 hours to overnight. After washing (3×) with PBST (PBS with 0.1% Tween®-20) buffer the wells were blocked with PBS with 0.5% Gelatine and 0.1% Tween®-20. Again, the plates were washed 3× and afterwards dilutions of B-cell supernatants were added. After an incubation of 60 min and 3 washing steps with PBST a 1:4000 dilution of a HRP-conjugated anti-rabbit IgG antibody (Amersham) was transferred to the wells and incubated for 60 min. Finally, the plates were repeatedly washed (6×) with PBST and developed with BM Blue® HRP substrate solution for 30 min. Absorbance was measured at 392-405 nm.
Single cell sorted B-cells were cultured in 96-well plates with 200 μl/well EL-4 B5 medium with Pansorbin Cells (SAC) (Calbiochem (Merck), Darmstadt, Deutschland), EL-4 B5 cells (5×10^4/well) and rabbit thymocyte supernatant (TSN) or cytokine mix (CM) with PMA, respectively, for 7 days at 37° C. in an atmosphere of 5% CO2 in the incubator. B-cell culture supernatants were removed for screening and the cells harvested immediately for variable region gene cloning or frozen at −80° C. in 100 μl RLT buffer (Qiagen, Hilden, Germany).

CCCCCCCCCCCCCC(=O)O[C@@H]1[C@@H](C)[C@@]2(O)[C@@H](C=C(CO)C[C@]3(O)C(=O)C(C)=C[C@@H]23)[C@@H]2C(C)(C)[C@]12OC(C)=O [PMA, (1aR,1bS,4aR,7aS,7bS,8R,9R,9aS)-9a-(acetyloxy)-4a,7b-dihydroxy-3-(hydroxymethyl)-1,1,6,8-tetramethyl-5-oxo-1a,1b,4,4a,5,7a,7b,8,9,9a-decahydro-H-cyclopropa[3,4]benzo[1,2-e]azulen-9-yl myristate]
HSA+ wells [% IgG+] (PMA 0.002 ng/ml, 0.1×CM): ++ | HSA+ wells [% total] (PMA 0.002 ng/ml, 0.1×CM): + | HSA+ wells [% IgG+] (PMA 0.011 ng/ml, 0.032×CM): +++++ | HSA+ wells [% total] (PMA 0.011 ng/ml, 0.032×CM): +++ | HSA+ wells [% IgG+] (PMA 0.011 ng/ml, 0.1×CM): +++++ | HSA+ wells [% total] (PMA 0.011 ng/ml, 0.1×CM): +++ | HSA+ wells [% IgG+] (PMA 0.054 ng/ml, 0.1×CM): +++ | HSA+ wells [% total] (PMA 0.054 ng/ml, 0.1×CM): +++ | Number of anti-HSA antibody positive wells [% of IgG positive wells] (PMA 0.095 ng/ml, CM 1x): 62.5 % of IgG positive wells | Number of anti-HSA antibody positive wells [% of total] (PMA 0.095 ng/ml, CM 1x): 23.8 % of total | HSA+ wells [% IgG+] (PMA 0.127 ng/ml, 0.032×CM): ++ | HSA+ wells [% IgG+] (PMA 0.127 ng/ml, 0.1×CM): ++ | HSA+ wells [% total] (PMA 0.127 ng/ml, 0.1×CM): + | HSA+ wells [% IgG+] (PMA 0.225 ng/ml, 0.1×CM): ++++ | HSA+ wells [% total] (PMA 0.225 ng/ml, 0.1×CM): +++++ | HSA+ wells [% IgG+] (PMA 0.3 ng/ml, 0.032×CM): +++ | HSA+ wells [% total] (PMA 0.3 ng/ml, 0.032×CM): ++++ | Number of anti-HSA antibody positive wells [% of IgG positive wells] (PMA 0.3 ng/ml, CM 0.01x): 41.4 % of IgG positive wells | Number of anti-HSA antibody positive wells [% of total] (PMA 0.3 ng/ml, CM 0.01x): 28.6 % of total | Number of anti-HSA antibody positive wells [% of IgG positive wells] (PMA 0.3 ng/ml, CM 0.032x): 39.0 % of IgG positive wells | Number of anti-HSA antibody positive wells [% of total] (PMA 0.3 ng/ml, CM 0.032x): 27.4 % of total | Number of anti-HSA antibody positive wells [% of IgG positive wells] (PMA 0.3 ng/ml, CM 0.1x): 42.1 % of IgG positive wells | Number of anti-HSA antibody positive wells [% of total] (PMA 0.3 ng/ml, CM 0.1x): 28.6 % of total | Number of anti-HSA antibody positive wells [% of IgG positive wells] (PMA 0.3 ng/ml, CM 0.32x): 39.6 % of IgG positive wells | Number of anti-HSA antibody positive wells [% of total] (PMA 0.3 ng/ml, CM 0.32x): 22.6 % of total | Number of anti-HSA antibody positive wells [% of IgG positive wells] (PMA 0.3 ng/ml, CM 1x): 20.0 % of IgG positive wells | Number of anti-HSA antibody positive wells [% of total] (PMA 0.3 ng/ml, CM 1x): 3.6 % of total | HSA+ wells [% IgG+] (PMA 0.534 ng/ml, 0.032×CM): +++ | HSA+ wells [% total] (PMA 0.534 ng/ml, 0.032×CM): ++ | HSA+ wells [% IgG+] (PMA 0.534 ng/ml, 0.1×CM): +++ | HSA+ wells [% total] (PMA 0.534 ng/ml, 0.1×CM): +++ | HSA+ wells [% IgG+] (PMA 0.535 ng/ml, without CM): +++++ | HSA+ wells [% total] (PMA 0.535 ng/ml, without CM): + | HSA+ wells [% total] (PMA 0.712 ng/ml, 0.032×CM): + | HSA+ wells [% IgG+] (PMA 0.712 ng/ml, 0.1×CM): ++++ | HSA+ wells [% total] (PMA 0.712 ng/ml, 0.1×CM): +++ | HSA+ wells [% IgG+] (PMA 0.949 ng/ml, 0.032×CM): +++ | HSA+ wells [% total] (PMA 0.949 ng/ml, 0.032×CM): +++++ | HSA+ wells [% IgG+] (PMA 0.949 ng/ml, 0.1×CM): + | Number of anti-HSA antibody positive wells [% of IgG positive wells] (PMA 0.95 ng/ml, CM 0x): 66.7 % of IgG positive wells | Number of anti-HSA antibody positive wells [% of total] (PMA 0.95 ng/ml, CM 0x): 19.0 % of total | Number of anti-HSA antibody positive wells [% of IgG positive wells] (PMA 0.95 ng/ml, CM 0.01x): 39.7 % of IgG positive wells | Number of anti-HSA antibody positive wells [% of total] (PMA 0.95 ng/ml, CM 0.01x): 27.4 % of total | Number of anti-HSA antibody positive wells [% of IgG positive wells] (PMA 0.95 ng/ml, CM 0.032x): 45.6 % of IgG positive wells | Number of anti-HSA antibody positive wells [% of total] (PMA 0.95 ng/ml, CM 0.032x): 31.0 % of total | Number of anti-HSA antibody positive wells [% of IgG positive wells] (PMA 0.95 ng/ml, CM 0.1x): 54.8 % of IgG positive wells | Number of anti-HSA antibody positive wells [% of total] (PMA 0.95 ng/ml, CM 0.1x): 27.4 % of total | Number of anti-HSA antibody positive wells [% of IgG positive wells] (PMA 0.95 ng/ml, CM 0.32x): 30.0 % of IgG positive wells | Number of anti-HSA antibody positive wells [% of total] (PMA 0.95 ng/ml, CM 0.32x): 7.1 % of total | Number of anti-HSA antibody positive wells [% of IgG positive wells] (PMA 0.95 ng/ml, CM 1x): 42.9 % of IgG positive wells | Number of anti-HSA antibody positive wells [% of total] (PMA 0.95 ng/ml, CM 1x): 3.6 % of total | HSA+ wells [% IgG+] (PMA 0.95 ng/ml, without CM): +++ | HSA+ wells [% IgG+] (PMA 1.266 ng/ml, 0.032×CM): ++++ | HSA+ wells [% total] (PMA 1.266 ng/ml, 0.032×CM): +++++ | HSA+ wells [% IgG+] (PMA 1.688 ng/ml, 0.032×CM): + | HSA+ wells [% total] (PMA 1.688 ng/ml, 0.032×CM): +++++ | HSA+ wells [% IgG+] (PMA 1.688 ng/ml, without CM): +++++ | HSA+ wells [% total] (PMA 1.688 ng/ml, without CM): +++++ | HSA+ wells [% total] (PMA 2.25 ng/ml, 0.032×CM): ++ | HSA+ wells [% IgG+] (PMA 2.251 ng/ml, without CM): +++ | HSA+ wells [% total] (PMA 2.251 ng/ml, without CM): +++++ | Number of anti-HSA antibody positive wells [% of IgG positive wells] (PMA 3 ng/ml, CM 0.01x): 48.3 % of IgG positive wells | Number of anti-HSA antibody positive wells [% of total] (PMA 3 ng/ml, CM 0.01x): 33.3 % of total | Number of anti-HSA antibody positive wells [% of IgG positive wells] (PMA 3 ng/ml, CM 0.032x): 47.5 % of IgG positive wells | Number of anti-HSA antibody positive wells [% of total] (PMA 3 ng/ml, CM 0.032x): 34.5 % of total | Number of anti-HSA antibody positive wells [% of IgG positive wells] (PMA 3 ng/ml, CM 0.1x): 20.0 % of IgG positive wells | Number of anti-HSA antibody positive wells [% of total] (PMA 3 ng/ml, CM 0.1x): 7.1 % of total | Number of anti-HSA antibody positive wells [% of IgG positive wells] (PMA 3 ng/ml, CM 0.32x): 27.3 % of IgG positive wells | Number of anti-HSA antibody positive wells [% of total] (PMA 3 ng/ml, CM 0.32x): 3.6 % of total | Number of anti-HSA antibody positive wells [% of IgG positive wells] (PMA 3 ng/ml, CM 1x): 45.5 % of IgG positive wells | Number of anti-HSA antibody positive wells [% of total] (PMA 3 ng/ml, CM 1x): 6.0 % of total | HSA+ wells [% total] (PMA 3.999 ng/ml, without CM): + | HSA+ wells [% IgG+] (PMA 5.331 ng/ml, without CM): ++ | HSA+ wells [% total] (PMA 5.331 ng/ml, without CM): +++ | HSA+ wells [% IgG+] (PMA 7.106 ng/ml, without CM): + | HSA+ wells [% total] (PMA 7.106 ng/ml, without CM): ++++
